What all share (type): ADME
For one test, the target named is T1, Cytochrome P450 1A2 (Homo sapiens, UniProt P05177).
T1 sequence (P05177 whole entry): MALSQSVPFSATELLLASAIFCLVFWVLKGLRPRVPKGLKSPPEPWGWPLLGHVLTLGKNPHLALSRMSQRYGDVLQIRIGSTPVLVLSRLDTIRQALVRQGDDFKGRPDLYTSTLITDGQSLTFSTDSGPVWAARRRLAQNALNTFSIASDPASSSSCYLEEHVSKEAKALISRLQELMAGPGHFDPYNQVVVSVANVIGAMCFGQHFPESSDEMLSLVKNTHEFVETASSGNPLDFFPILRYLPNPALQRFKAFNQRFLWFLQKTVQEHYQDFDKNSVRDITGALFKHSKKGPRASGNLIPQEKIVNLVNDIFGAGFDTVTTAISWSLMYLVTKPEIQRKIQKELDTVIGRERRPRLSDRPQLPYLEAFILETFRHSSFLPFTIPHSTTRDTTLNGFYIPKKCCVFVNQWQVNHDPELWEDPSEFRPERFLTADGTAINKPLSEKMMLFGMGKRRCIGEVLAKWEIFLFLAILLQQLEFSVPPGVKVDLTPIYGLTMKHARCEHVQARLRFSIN
The test is described as follows: (§1) The compounds are incubated at 0, 0.15, 0.5, 1.5, 5, 15 and 50 uM concentration at 37 C, CYP1A2 is pooled in a ratio such that biotransformation of each probe substrate is specific for the CYP450. Substrates (at their Km) are also pooled within the same solution to create an enzyme-substrate stock and test compound is added. The final solvent concentration is 1% DMSO. After equilibration to 37 C, addition of NADPH initiates substrate biotransformation. The incubation is stopped at 10 min by methanol containing internal standard. The quenched samples are centrifuged to precipitate the protein and the supernatants are analyzed by LC-MS/MS to measure metabolite formation. IC50 of test compounds against CYP1A2 is calculated. The assay has been performed by Concept Life Sciences Ltd.

The target in a further test is Cytochrome P450 2C19 (Homo sapiens, UniProt P33261). Described as §1, with “CYP2C19” for “CYP1A2”.
Another test has as its target Cytochrome P450 2C9 (Homo sapiens, UniProt P11712). Described as §1, with “CYP2C9” for “CYP1A2”.
Another test concerns the target Cytochrome P450 2D6 (Homo sapiens, UniProt P10635). The test is described as §1, with “CYP2D6” for “CYP1A2”.
Another test concerns the target Cytochrome P450 3A4 (Homo sapiens, UniProt P08684). Described as §1, with “CYP3A4” for “CYP1A2”.

Sequence of Cytochrome P450 2C9 (P11712 whole entry): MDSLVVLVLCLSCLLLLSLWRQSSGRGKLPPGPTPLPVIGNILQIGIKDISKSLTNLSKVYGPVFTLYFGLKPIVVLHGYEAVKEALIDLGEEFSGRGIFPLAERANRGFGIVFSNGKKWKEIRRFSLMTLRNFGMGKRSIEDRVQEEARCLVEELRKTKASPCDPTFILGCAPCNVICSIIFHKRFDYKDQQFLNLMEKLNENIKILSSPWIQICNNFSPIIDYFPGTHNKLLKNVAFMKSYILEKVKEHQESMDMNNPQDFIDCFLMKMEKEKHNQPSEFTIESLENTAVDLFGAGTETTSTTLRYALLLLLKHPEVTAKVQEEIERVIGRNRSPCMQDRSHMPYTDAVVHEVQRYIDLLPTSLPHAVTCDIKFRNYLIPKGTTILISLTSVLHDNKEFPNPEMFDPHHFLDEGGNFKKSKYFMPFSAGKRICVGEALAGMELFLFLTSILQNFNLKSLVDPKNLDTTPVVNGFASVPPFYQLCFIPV
Sequence of Cytochrome P450 3A4 (P08684 whole entry): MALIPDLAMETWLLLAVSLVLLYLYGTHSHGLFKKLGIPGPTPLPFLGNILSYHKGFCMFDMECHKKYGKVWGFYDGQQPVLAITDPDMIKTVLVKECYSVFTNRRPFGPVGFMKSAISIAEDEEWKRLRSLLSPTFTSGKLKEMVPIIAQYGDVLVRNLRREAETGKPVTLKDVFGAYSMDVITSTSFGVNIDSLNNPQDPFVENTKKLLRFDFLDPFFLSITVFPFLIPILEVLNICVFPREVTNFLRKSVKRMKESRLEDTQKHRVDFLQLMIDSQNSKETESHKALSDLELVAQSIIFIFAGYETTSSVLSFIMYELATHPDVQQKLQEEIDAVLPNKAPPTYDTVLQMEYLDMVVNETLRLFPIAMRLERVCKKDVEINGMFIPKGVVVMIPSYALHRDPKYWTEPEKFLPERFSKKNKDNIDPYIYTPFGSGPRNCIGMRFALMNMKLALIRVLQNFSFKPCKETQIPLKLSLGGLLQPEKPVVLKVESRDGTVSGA
Sequence of Cytochrome P450 2D6 (P10635 whole entry): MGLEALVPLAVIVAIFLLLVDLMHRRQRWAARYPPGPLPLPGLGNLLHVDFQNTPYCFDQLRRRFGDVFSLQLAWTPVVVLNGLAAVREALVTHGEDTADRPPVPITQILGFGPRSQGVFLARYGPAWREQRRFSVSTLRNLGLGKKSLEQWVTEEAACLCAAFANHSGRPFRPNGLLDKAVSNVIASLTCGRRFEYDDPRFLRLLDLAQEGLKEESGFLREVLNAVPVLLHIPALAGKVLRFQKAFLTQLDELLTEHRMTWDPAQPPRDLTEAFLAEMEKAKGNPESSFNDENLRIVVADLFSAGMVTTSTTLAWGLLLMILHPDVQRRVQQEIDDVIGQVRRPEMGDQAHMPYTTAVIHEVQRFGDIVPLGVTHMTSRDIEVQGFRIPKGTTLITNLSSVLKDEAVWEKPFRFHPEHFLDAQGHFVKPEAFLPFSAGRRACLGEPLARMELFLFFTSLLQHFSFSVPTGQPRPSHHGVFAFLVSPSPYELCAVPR
Sequence of Cytochrome P450 2C19 (P33261 whole entry): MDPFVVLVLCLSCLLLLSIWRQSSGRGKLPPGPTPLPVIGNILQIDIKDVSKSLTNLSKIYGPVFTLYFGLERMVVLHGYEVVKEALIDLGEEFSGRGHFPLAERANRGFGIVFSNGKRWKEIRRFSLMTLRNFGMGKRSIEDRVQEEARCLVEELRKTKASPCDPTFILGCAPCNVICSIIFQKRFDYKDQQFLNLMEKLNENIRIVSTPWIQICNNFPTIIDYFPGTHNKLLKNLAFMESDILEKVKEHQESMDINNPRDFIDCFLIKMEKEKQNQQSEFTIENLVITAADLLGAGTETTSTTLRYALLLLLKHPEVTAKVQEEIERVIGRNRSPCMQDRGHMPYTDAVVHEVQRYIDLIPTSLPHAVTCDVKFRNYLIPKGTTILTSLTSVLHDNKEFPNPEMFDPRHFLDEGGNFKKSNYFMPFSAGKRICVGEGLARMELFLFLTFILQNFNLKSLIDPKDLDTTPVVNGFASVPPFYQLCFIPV

As for `Cn1ncc(-c2cc3c(N[C@@H](c4ccc5c(n4)OCCO5)C(C)(C)C)ncnc3[nH]2)c1C#N`, the IC50 was > 50 µM at Cytochrome P450 1A2; > 50 µM at Cytochrome P450 2C19; 42.6 µM on Cytochrome P450 2C9; 20.5 µM on Cytochrome P450 2D6; 8.79 µM on Cytochrome P450 3A4.

Take `CC(C)[C@@H](Nc1ncnc2[nH]c(C(=O)N[C@@H]3CCN(C)C3)cc12)c1ccc2c(c1)S(=O)(=O)CCC2`: the IC50 at Cytochrome P450 1A2, on Cytochrome P450 2C19, at Cytochrome P450 2C9, on Cytochrome P450 2D6 and at Cytochrome P450 3A4 was > 50 µM throughout.

On to `COc1ccc([C@H](Cc2nnn[nH]2)NC(=O)c2ncnc3[nH]ccc23)cc1`, for which the half-inhibitory concentration (IC50) at Cytochrome P450 1A2 is > 50 µM; on Cytochrome P450 2C19 it was > 50 µM; at Cytochrome P450 2C9, 31.2 µM; at Cytochrome P450 2D6 it was > 50 µM; on Cytochrome P450 3A4 it was 25.4 µM.

In the case of `CNCc1cc(-c2cc3c(N[C@@H](c4ccc5c(c4)S(=O)(=O)CCC5)C(C)C)ncnc3[nH]2)co1`, the IC50 is 49.3 µM at Cytochrome P450 1A2; 22.6 µM on Cytochrome P450 2C19; 5.25 µM at Cytochrome P450 2C9; 9.03 µM at Cytochrome P450 2D6; 1.81 µM at Cytochrome P450 3A4.

On to `C[C@H](C(=O)O)[C@@H](NC(=O)c1ncnc2[nH]ccc12)c1ccc(Br)cc1`, for which the IC50 is > 50 µM at Cytochrome P450 1A2; > 50 µM on Cytochrome P450 2C19; 5.14 µM on Cytochrome P450 2C9; > 50 µM on Cytochrome P450 2D6; > 50 µM on Cytochrome P450 3A4.

On to `CNC(=O)Cn1cc(-c2cc3c(N[C@@H](c4ccc5c(c4)S(=O)(=O)CCC5)C(C)C)ncnc3[nH]2)cn1`, for which the IC50 was 44.1 µM on Cytochrome P450 1A2; 34.7 µM at Cytochrome P450 2C19; 29 µM at Cytochrome P450 2C9; 48.2 µM at Cytochrome P450 2D6; 3.1 µM at Cytochrome P450 3A4.

Regarding `CC(C)[C@@H](Nc1ncnc2[nH]c(-c3cnn(C)c3C#N)cc12)c1ccc2c(n1)OCCO2`, the IC50 on Cytochrome P450 1A2 was 8.86 µM; on Cytochrome P450 2C19, 9.51 µM; at Cytochrome P450 2C9 it was 4.34 µM; on Cytochrome P450 2D6 it was 22.7 µM; at Cytochrome P450 3A4 it was 2.07 µM.

With `CC(C)[C@H](Nc1ncnc2[nH]c(-c3cnn(C)c3C#N)cc12)c1ccc2c(n1)OCCO2`, the IC50 on Cytochrome P450 1A2 is 35.2 µM; at Cytochrome P450 2C19, 16.9 µM; on Cytochrome P450 2C9, 5.93 µM; at Cytochrome P450 2D6 it was 27.7 µM; on Cytochrome P450 3A4 it was 3.69 µM.

With `CC(C)[C@H](Nc1ncnc2[nH]ccc12)c1ccc2c(c1)S(=O)(=O)CCC2`, the IC50 is > 50 µM at Cytochrome P450 1A2; 15 µM at Cytochrome P450 2C19; 18.2 µM at Cytochrome P450 2C9; > 50 µM at Cytochrome P450 2D6; 3.2 µM at Cytochrome P450 3A4.

The record behind these values is ChEMBL document CHEMBL5441445, “ASAP - In vitro CYP inhibition pooled” (2024).
